The results in this text go back to patent US8759504B2, “Cholinergic/serotoninergic receptor and uses thereof” (AbbVie Inc., priority 2007, dated 2014).

The target in assay [1] is T1, wild-type human 5-HT3A receptors (Homo sapiens, UniProt P46098).
T1 construct: expressed in transfected cells; host or cells: Xenopus laevis oocytes
T1 sequence (P46098 1-484 isoform P46098-4): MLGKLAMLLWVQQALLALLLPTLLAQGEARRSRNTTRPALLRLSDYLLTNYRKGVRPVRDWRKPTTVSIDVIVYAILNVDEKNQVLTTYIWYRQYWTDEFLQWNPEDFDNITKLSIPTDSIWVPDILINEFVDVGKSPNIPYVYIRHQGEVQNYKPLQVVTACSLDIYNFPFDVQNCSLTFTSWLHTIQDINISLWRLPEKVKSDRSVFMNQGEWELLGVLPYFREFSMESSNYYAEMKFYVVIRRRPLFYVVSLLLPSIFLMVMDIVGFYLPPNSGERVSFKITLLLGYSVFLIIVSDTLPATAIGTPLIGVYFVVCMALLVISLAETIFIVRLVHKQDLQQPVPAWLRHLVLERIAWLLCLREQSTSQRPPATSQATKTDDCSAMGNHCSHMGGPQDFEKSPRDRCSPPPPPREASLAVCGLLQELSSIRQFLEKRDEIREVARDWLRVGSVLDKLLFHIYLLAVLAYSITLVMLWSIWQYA
The assay is described as follows: Two electrode voltage clamp in Xenopus oocytes, agonist and modulator responses. The format is cell-based. As to conditions: Xenopus oocytes; read-out: Maximum activation. Background: Two-electrode voltage clamp is typically applied to oocytes expressing channels or transporters.

A further assay concerns the target T2, Chimera 8 (Homo sapiens, UniProt P46098, I238M/V237T).
T2 construct: expressed in transfected cells; host or cells: Xenopus laevis oocytes
Kind of assay: Two electrode voltage clamp in Xenopus oocytes, reverse 5HT3-α7 chimera. In kind it is cell-based. As for the experimental part: Xenopus laevis oocytes were prepared and injected as previously described {Eisele, 1993 #2; Krause, 1998 #4}. Briefly, ovaries were harvested from female Xenopus. Isolation of the oocytes was obtained by enzymatic dissociation using collagenase type I in a medium deprived of calcium and by gentle mechanical agitation for approximately 3 hours. Oocytes stage 5-6 were manually selected on the next day and injected into the nucleus with 2 ng plasmid containing the cDNA of interest. Oocytes were then placed in a 96 well microtiter plate in Barth solution and used for electrophysiological investigation two to five days later. All recordings were performed at 18° C. and cells were superfused with OR2 medium containing in mM:NaCl 82.5, KCI 2.5, HEPES 5, CaCl2.2H2O 2.5, MgCl2.6H2O 1, pH 7.4, and 0.5 μM atropine was added to prevent possible activation of endogenous muscarinic receptors. Unless indicated cells were held at −100 mV using a two electrode voltage clamp apparatus connected to a Geneclamp amplifier (Molecular Devices). Data were captured and analyzed using data acquisition and analysis software. […] Values indicated throughout the text are given with their respective standard error of the mean (SEM). For statistical analysis we used the unpaired, two-tailed Student's T test using either excel (Microsoft) or Matlab (Mathworks Inc.).
To examine the putative role of the transmembrane domains, a reverse chimera comprising the 5-HT3 ligand binding domain and the transmembrane domain of α7 was designed and constructed. […] See FIGS. 13A and B. To best evaluate a putative allosteric modulation, currents evoked by low agonist concentration were also investigated, but exposure to either NS-1738 or PNU-120596 caused no detectable modification of the response amplitude or time course. […] Data not shown. […] The cartoon above the traces in FIG. 13 illustrates the schematic structure of a single subunit inserted into the membrane. The gray line corresponds to the extracellular 5HT3 receptor sequence, whereas the dark line indicates the α7 segments. Despite the low yield of expression, significant and reproducible currents were evoked by brief exposure to 5-HT.

The target in assay [2] is T3, wild-type α7 nicotinic acetylcholine receptor (Homo sapiens, UniProt P36544).
T3 construct: expressed in transfected cells; host or cells: Xenopus laevis oocytes
Kind of assay: Two electrode voltage clamp in Xenopus oocytes, agonist and modulator responses. The format is cell-based.

The target in assay [3] is T4, Chimera 1 (Homo sapiens, UniProt P36544, M226I/T225V). The assay is described as follows: Membrane potential imaging (FLIPR-FMP) in HEK-293 cells. The format is cell-based. Details: expressed in transfected cells.
Assay [4] deals with T5, Chimera 2 (Homo sapiens, UniProt P36544, M226I/T225V). The assay is described as above. The format is cell-based. Details: expressed in transfected cells.
The target of assay [5] is T4, Chimera 1. Kind of assay: Two electrode voltage clamp in Xenopus oocytes (POETs), agonist and modulator responses. In kind it is cell-based. Also noted: expressed in transfected cells; host or cells: Xenopus laevis oocytes (transient, A1).
Assay [6] deals with T5, Chimera 2. The description is as above. Also noted: expressed in transfected cells; host or cells: Xenopus laevis oocytes (transient, A2). The format is cell-based.
Assay [7] has as its target T6, rat brain α7* nicotinic acetylcholine receptors (Rattus norvegicus, UniProt Q05941).
T6 construct: expressed both as a native (rat cortex) or α7/5-HT3 chimeric receptor; from tissue; host or cells: rat brain / rat cortex homogenates
Kind of assay: [3H]A-585539 radioligand binding, rat brain homogenates.

The target of assay [8] is T5, Chimera 2. The assay is described as follows: [3H]A-585539 radioligand binding, HEK-293 membranes/homogenates. The note with it: increasing concentrations. Details: expressed in transfected cells.
The mark [9] stands for this setting: read-out: Maximum efficacy (mean±S.E.M.), agonist-evoked current.
Setting [10] is: HEK293, read-out: Maximum efficacy (mean±S.E.M.), membrane potential imaging, HEK-293 cells.
[11] abbreviates: read-out: Agonist potency, membrane potential imaging: EC50 (95% C.I.), HEK-293 cells.
Setting [12] is: HEK293, read-out: Agonist maximum efficacy, control (no modulator).
The mark [13] stands for this setting: HEK293, read-out: Agonist maximum efficacy, in the presence of 10 μM genistein.
[14] abbreviates: HEK293, read-out: Agonist maximum efficacy, in the presence of 1 mM 5-HI.
Where [15] appears, read: read-out: Agonist concentration-response EC50, control (no modulator).
The mark [16] stands for this setting: read-out: Agonist concentration-response EC50, in the presence of 10 μM genistein.
Setting [17] is: read-out: Agonist concentration-response EC50, in the presence of 1 mM 5-HI.

T4 sequence (P36544 with tags, fused parts or gaps T225V/M226I): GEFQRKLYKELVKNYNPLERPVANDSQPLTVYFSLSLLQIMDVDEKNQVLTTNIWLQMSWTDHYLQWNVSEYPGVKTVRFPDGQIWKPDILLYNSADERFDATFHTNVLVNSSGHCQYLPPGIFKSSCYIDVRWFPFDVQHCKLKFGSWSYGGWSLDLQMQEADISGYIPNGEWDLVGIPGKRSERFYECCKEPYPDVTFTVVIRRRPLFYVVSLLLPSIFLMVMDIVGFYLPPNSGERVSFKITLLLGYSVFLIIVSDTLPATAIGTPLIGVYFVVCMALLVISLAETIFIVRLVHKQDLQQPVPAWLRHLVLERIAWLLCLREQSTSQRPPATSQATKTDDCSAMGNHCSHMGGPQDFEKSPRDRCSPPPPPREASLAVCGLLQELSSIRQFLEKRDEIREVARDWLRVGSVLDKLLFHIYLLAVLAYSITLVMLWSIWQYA
T5 sequence (P36544 with tags, fused parts or gaps T225V/M226I): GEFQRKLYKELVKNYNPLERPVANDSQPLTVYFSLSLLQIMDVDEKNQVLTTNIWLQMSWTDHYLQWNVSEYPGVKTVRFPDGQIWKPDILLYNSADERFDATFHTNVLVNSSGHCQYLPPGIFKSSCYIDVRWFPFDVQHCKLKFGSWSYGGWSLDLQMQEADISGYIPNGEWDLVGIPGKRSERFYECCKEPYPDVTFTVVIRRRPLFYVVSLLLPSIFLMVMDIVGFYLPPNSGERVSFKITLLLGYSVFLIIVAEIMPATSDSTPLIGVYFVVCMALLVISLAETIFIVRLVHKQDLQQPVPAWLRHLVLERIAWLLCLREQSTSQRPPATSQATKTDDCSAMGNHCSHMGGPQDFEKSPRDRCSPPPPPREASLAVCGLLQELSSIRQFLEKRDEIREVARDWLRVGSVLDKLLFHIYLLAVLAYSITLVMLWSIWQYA
T3 sequence (P36544 23-502): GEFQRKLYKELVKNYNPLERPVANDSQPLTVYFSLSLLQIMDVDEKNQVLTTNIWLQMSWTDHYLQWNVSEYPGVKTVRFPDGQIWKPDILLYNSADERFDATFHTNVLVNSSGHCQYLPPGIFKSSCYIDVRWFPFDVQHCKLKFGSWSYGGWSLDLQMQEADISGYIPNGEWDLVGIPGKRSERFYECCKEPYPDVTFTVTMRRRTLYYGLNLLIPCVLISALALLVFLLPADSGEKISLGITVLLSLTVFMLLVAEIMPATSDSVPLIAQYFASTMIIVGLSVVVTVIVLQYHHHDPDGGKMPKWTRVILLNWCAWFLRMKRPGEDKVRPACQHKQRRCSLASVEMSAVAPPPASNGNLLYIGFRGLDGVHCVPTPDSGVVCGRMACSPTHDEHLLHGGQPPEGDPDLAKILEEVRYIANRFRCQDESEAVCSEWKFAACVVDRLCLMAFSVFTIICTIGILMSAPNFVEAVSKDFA
T6 sequence (Q05941 23-502): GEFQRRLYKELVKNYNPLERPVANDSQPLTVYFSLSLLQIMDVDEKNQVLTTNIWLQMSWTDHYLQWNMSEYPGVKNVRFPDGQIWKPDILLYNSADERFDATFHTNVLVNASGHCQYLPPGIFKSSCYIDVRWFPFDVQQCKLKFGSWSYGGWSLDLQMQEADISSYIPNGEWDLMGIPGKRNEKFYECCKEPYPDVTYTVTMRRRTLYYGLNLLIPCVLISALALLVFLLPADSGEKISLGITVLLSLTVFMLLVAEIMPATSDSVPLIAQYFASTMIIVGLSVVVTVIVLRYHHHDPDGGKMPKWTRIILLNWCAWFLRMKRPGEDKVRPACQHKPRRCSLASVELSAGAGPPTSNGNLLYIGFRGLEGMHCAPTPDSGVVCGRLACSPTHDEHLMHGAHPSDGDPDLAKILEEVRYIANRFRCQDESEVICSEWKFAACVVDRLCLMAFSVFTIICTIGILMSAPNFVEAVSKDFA
T2 sequence (P46098 with tags, fused parts or gaps isoform P46098-4 V243T/I244M): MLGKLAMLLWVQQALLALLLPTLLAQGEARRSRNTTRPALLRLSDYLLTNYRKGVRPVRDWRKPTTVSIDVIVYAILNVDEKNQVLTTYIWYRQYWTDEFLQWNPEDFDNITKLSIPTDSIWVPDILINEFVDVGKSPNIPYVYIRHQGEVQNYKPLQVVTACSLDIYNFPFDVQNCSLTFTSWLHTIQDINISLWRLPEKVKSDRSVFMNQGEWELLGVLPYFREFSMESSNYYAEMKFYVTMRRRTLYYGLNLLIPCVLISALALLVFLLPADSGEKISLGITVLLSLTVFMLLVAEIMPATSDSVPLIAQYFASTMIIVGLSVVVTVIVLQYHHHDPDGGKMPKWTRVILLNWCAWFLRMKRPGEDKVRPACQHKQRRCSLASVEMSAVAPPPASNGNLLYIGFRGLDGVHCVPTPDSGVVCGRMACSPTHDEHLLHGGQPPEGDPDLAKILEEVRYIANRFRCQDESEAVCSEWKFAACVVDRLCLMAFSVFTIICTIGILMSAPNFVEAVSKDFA

Take `NCCc1c[nH]c2ccc(O)cc12` [5-HT, 5-hydroxytryptamine]: in [1], the Emax was 100%. The “Agonist-evoked current” value at Chimera 8 is “significant inward currents”.
`C[N+](C)(C)CCO` [Choline, choline]: the EC50 in assay [2] (Agonist potency, two electrode voltage clamp, Xenopus oocyte: EC50 (95% C.I.), peak current amplitude) stood at 1120 µM; on Chimera 1 [3] (setting [11]), 285 µM; on Chimera 2 [4] (setting [11]) it was 37.8 µM; on Chimera 1 [5] (read-out: Agonist potency, two electrode voltage clamp, Xenopus oocyte: EC50 (95% C.I.), peak current amplitude), 1510 µM; at Chimera 2 [6] (read-out: Agonist potency, two electrode voltage clamp, Xenopus oocyte: EC50 (95% C.I.)), 214 µM. Besides, the Emax was determined as 81 ± 4% in assay [2] (setting [9]); 132 ± 9% on Chimera 1 [3] (setting [10]); 101 ± 6% at Chimera 2 [4] (setting [10]); 91 ± 7% on Chimera 1 [5] (setting [9]); 78 ± 4% at Chimera 2 [6] (setting [9]). Besides, the results for the “FLIPR-FMP pEC50 ± SEM” value at Chimera 1 [3] (HEK-293 cells) and at Chimera 2 [4] (HEK-293 cells) were 2.9 ± 0.06 and 4.4 ± 0.04, respectively. Also, the “Electrophysiology (POETs) pEC50 ± SEM” value on Chimera 1 [5] (Xenopus oocytes) came to 2.9 ± 0.06; at Chimera 2 [6] it was 3.7 ± 0.08.
As for `CC[C@H](C)[C@H]1O[C@]2(CC[C@@H]1C)C[C@@H]1C[C@@H](C/C=C(\C)[C@@H](O[C@H]3C[C@H](OC)[C@@H](O[C@H]4C[C@H](OC)[C@@H](O)[C@H](C)O4)[C@H](C)O3)[C@@H](C)/C=C/C=C3\CO[C@@H]4[C@H](O)C(C)=C[C@@H](C(=O)O1)[C@]34O)O2` [IVM, ivermectin], the results for the “ng of ACh curve after modulator” value (in assay [2] (30 μM IVM); at Chimera 1 [5] (30 μM IVM); on Chimera 2 [6] (30 μM IVM)) were 1.4 ± 0.16, 1.8 ± 0.05 and 1.1 ± 0.12, respectively. Also, the figures for the “Effect of modulator on ACh-evoked current (words)” value (in assay [2] (Xenopus oocytes); on Chimera 1 [5] (Xenopus oocytes)) were “substantial increase in the amplitude of the subsequent ACh-evoked current” and “absence of effects”, respectively.
`c1ccc(-c2nnc(N3CCN4CCC3CC4)o2)cc1` [NS6784, 2-(1,4-diazabicyclo[3.2.2]nonan-4-yl)-5-phenyl-1,3,4-oxadiazole]: the Emax at Chimera 1 [3] (setting [10]) came to 100%; on Chimera 2 [4] (setting [10]) it was 107 ± 5%. Besides, the results for the “FLIPR-FMP pEC50 ± SEM” value at Chimera 1 [3] (HEK-293 cells) and at Chimera 2 [4] (HEK-293 cells) were 6.8 ± 0.10 and 7.1 ± 0.04, respectively. In addition, the EC50 on Chimera 1 [3] (setting [11]) was 0.133 µM; at Chimera 2 [4] (setting [11]), 0.072 µM.
On to `O=C(N[C@H]1CN2CCC1CC2)c1ccc(Cl)cc1` [PNU-282987], for which the Emax is 98 ± 2% on Chimera 1 [3] (setting [12]); 87 ± 3% at Chimera 1 [3] (setting [13]); 157 ± 13% at Chimera 1 [3] (setting [14]); 107 ± 9% on Chimera 1 [3] (setting [10]); 100 ± 0.01% at Chimera 2 [4] (setting [12]); 207 ± 21% at Chimera 2 [4] (setting [13]). Moreover, the Emax turned out to be 156 ± 4% on Chimera 2 [4] (setting [14]) and 99 ± 2% on Chimera 2 [4] (setting [10]). Besides, the “FLIPR-FMP pEC50 ± SEM” value is reported as 6.8 ± 0.07 at Chimera 1 [3] (HEK-293 cells) and 7.0 ± 0.04 on Chimera 2 [4] (HEK-293 cells). Further, the EC50 was determined as 0.343 µM at Chimera 1 [3] (setting [15]); 0.527 µM on Chimera 1 [3] (setting [16]); 0.145 µM on Chimera 1 [3] (setting [17]); 0.204 µM at Chimera 1 [3] (setting [11]); 0.075 µM on Chimera 2 [4] (setting [15]); 0.072 µM on Chimera 2 [4] (setting [16]). Besides, the figures for the EC50 on Chimera 2 [4] (setting [17]) and at Chimera 2 [4] (setting [11]) were 0.037 µM and 0.053 µM, respectively.
Consider `Br.CO[C@H]1CC=C2CCN3CCC4=C(CC(=O)OC4)[C@]23C1` [dihydro-β-erythroidine hydrobromide], for which the “Effect on the inward current evoked by NS-1738 alone” value at Chimera 2 [6] (Xenopus oocytes, data not shown) is “inhibited the inward current observed during the NS-1738 exposure”.
For `CCN1C[C@]2(COC(=O)c3ccccc3N3C(=O)C[C@H](C)C3=O)CC[C@H](OC)[C@@]34[C@@H]5C[C@H]6[C@H](OC)[C@@H]5[C@](O)(C[C@@H]6OC)[C@@](O)([C@@H](OC)[C@H]23)[C@@H]14` [methyllycaconitine], the “Competition / displacement of [3H]A-585539 binding” value (in [7]; on Chimera 2 [8]) was “competed with the binding” throughout.
